Columns and labels:
EGFR [1] = biological target: T1, EGFR (Homo sapiens, UniProt P00533); test: Biochemical EGFR assay (ELISA, A431 cell lysate); set-up: Add 7 μg A431 cell lysate per well (EGFR source); endogenous in cells; host or cells: A431 cell lysate, captured on 05-101 anti-EGFR antibody; settings: A431 cell lysate as EGFR source
Description: The following protocol describes the procedures used to analyze protein tyrosine kinase activity on the EGFR in an Elisa. The procedure also describes the protocol for the initial screening of drugs for inhibition or activation of protein tyrosine kinase activity.
A431 cells are available from a variety of commercial sources and may be used lysed using conventional methods known to those skilled in the art or as described for lysis of the 3T3 cells in the EGF cellular assay described herein. −80° C., 1 mL aliquots
1. Coat Corning 96-well elisa plates with 0.5 μg per well 05-101 antibody. Bring final volume to 100 μL per well with PBS. Coat plates overnight at 4° C.
5. Add 7 μg A431 cell lysate per well (EGFR source). Add PBS to final volume of 100 μL per well. Incubate 30 minutes while shaking.
7. At this point, drugs or extracts are added to the wells. Dilute drugs/extracts 1:100 (unless specified otherwise) in TBS+10% DMSO in 96-well polypropylene plates. Add 120 μL TBS to ELISA plate containing captured EGFR. […] Incubate plate 30 minutes while shaking.
8. […] (150 μL final volume in well with 3 μM ATP/5 mM MnCl2 final concentration in well.) Incubate 5 minutes while shaking vigorously.
9. […]
17. Read assay on Dynatech MR7000 elisa reader.
The IC50 values measured in the above assay for the compound of formula VI are depicted in Table 2: […]

EGFR [2] = biological target: T1, EGFR; test: EGF receptor phosphorylation assay in cells (ELISA); type: cell-based; set-up: expressed in transfected cells; host or cells: NIH 3T3/C7 cell line; settings: NIH 3T3/C7 cells, EGF stimulation
Method: EGF Receptor kinase activity in cells genetically engineered to express human EGF-R was measured as described below: 1. Coat ELISA plates (Coming, 96 well, Cat. #25805-96) wit 05-101 antibody at 0.5 μg per well in PBS, 150 μL final volume/well, and store overnight at 4° C. Coated plates are good for up to 10 days when stored at 4° C. 1. NIH 3T3/C7 cell line (Honegger, et al., Cell 51:199-209, 1987) can be use for this assay. 3. Resuspend cells in seeding medium (DMEM, 0.5% bovine serum), and count the cells using trypan blue. Viability above 90% is acceptable. Seed cells in DMEM medium (0.5% bovine serum) at a density of 10,000 cells per well, 100 μL per well, in a 96 well microtiter plate. Incubate seeded cells in 5% CO2 at 37° C. for about 40 hours. 1. Check seeded cells for contamination using an inverted microscope. Dilute drug stock (10 mg/mL in DMSO) 1:10 in DMEM medium, then transfer 5 μL to a test well for a final drug dilution of 1:200 and a final DMSO concentration of […]. […] The maximal phosphotyrosine signal is determined by subtracting the value of the negative controls from the positive controls. The percent inhibition of phosphotyrosine content for extract-containing wells is then calculated, after subtraction of the negative controls. The IC50 values measured in the EGF receptor phosphorylation assay for the compound of formula VI are depicted in Table 3: […]

SKOV3 cells = test: Growth of SKOV3 cells (SRB); type: cell-based; settings: Homo sapiens, SK-OV-3, 2%
Description: The assay is the same as the assay set forth in EXAMPLE 10, except that SKOV3 cells (ATCC HTB77) are used instead of A431 cells.
Compound of formula VI inhibited the growth rate of SKOV3 cells as illustrated in Table 10.

T1 sequence (P00533 25-1210): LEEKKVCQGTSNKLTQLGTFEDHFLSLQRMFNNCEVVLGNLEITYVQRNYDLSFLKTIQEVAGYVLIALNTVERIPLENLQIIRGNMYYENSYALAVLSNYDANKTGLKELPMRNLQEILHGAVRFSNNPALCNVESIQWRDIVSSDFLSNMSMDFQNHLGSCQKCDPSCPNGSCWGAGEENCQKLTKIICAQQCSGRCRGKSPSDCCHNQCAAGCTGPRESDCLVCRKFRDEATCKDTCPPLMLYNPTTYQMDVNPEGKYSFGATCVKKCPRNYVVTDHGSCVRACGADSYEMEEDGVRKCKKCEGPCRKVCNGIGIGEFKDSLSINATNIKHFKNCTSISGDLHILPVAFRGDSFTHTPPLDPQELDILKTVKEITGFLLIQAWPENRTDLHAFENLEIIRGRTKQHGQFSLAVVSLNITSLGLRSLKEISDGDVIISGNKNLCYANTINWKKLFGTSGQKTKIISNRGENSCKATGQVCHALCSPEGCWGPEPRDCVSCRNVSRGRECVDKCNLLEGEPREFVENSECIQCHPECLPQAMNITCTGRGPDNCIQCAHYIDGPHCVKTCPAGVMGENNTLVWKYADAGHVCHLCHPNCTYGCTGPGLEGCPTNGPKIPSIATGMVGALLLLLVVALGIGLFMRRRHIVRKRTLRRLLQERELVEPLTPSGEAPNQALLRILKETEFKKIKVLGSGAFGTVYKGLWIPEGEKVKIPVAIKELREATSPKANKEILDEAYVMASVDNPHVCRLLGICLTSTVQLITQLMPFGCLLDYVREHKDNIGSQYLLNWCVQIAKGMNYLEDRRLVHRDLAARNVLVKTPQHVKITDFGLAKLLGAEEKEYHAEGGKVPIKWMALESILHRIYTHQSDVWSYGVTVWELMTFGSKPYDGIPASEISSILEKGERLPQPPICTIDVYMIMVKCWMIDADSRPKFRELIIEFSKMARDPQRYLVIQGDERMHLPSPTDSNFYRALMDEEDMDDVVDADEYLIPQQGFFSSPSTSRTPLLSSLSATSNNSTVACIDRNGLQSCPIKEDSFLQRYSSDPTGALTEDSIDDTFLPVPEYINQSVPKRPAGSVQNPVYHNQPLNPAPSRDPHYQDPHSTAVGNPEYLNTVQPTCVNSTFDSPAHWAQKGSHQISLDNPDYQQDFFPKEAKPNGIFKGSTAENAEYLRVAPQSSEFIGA

Cc1cc(/C=C2/C(=O)Nc3ccccc32)c(C)c2c1[nH]c1ccccc12 [VI]
IC50 (EGFR [1]): > 50 µM
IC50 (EGFR [2]): > 100 µM
IC50 (SKOV3 cells): 1.08 µM

Source: US6514981B1, “Methods of modulating tyrosine protein kinase function with indolinone compounds” (Sugen, Inc., priority 1998, dated 2003)
